Measurements reported in ChEMBL document CHEMBL1201862, “PubChem BioAssay data set” (2004).
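Assay format: 96-well plates, 48-hour exposure. GI50 = concentration required for 50% inhibition of growth.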 The source made the active and inactive calls. No stated cut-off is given here; in the data, active = GI50 up to about 1.1 µM and inactive = higher.

Experiments:
Test in all cases: NCI-60 cell line screen, 48 h
XF498 = tested on: XF498
ACHN = tested on: ACHN
OVCAR-4 = tested on: OVCAR-4
NCI-H460 = tested on: NCI-H460
MOLT-4 = tested on: MOLT-4
K562 = tested on: K562
A498 = tested on: A498
SF-539 = tested on: SF-539
M14 = tested on: M14
EKVX = tested on: EKVX
Malme-3M = tested on: Malme-3M
A549 = tested on: A549
SK-MEL-2 = tested on: SK-MEL-2
OVCAR-3 = tested on: OVCAR-3
HOP-18 = tested on: HOP-18
NCI-H23 = tested on: NCI-H23
OVCAR-8 = tested on: OVCAR-8
SNB-19 = tested on: SNB-19
SN12C = tested on: SN12C
TK-10 = tested on: TK-10
UACC-62 = tested on: UACC-62
M19-MEL = tested on: M19-MEL
NCI-H522 = tested on: NCI-H522
COLO 205 = tested on: COLO 205
IGROV-1 = tested on: IGROV-1
RXF 393 = tested on: RXF 393
DLD-1 = tested on: DLD-1
HL-60 = tested on: HL-60
RXF 631 = tested on: RXF 631
HCT-15 = tested on: HCT-15
LOX IMVI = tested on: LOX IMVI
KM12 = tested on: KM12
DMS-273 = tested on: DMS-273
CCRF-CEM = tested on: CCRF-CEM
SF-268 = tested on: SF-268
SW-620 = tested on: SW-620
SNB-78 = tested on: SNB-78
SF-295 = tested on: SF-295
HOP-62 = tested on: HOP-62
SK-OV-3 = tested on: SK-OV-3
HCT-116 = tested on: HCT-116
UO-31 = tested on: UO-31
LXFL 529 = tested on: LXFL 529
UACC-257 = tested on: UACC-257
SK-MEL-28 = tested on: SK-MEL-28
OVCAR-5 = tested on: OVCAR-5
HT-29 = tested on: HT-29
KM-20L2 = tested on: KM-20L2
SNB-75 = tested on: SNB-75
U-251 = tested on: U-251
786-0 = tested on: 786-0
CAKI-1 = tested on: CAKI-1
SK-MEL-5 = tested on: SK-MEL-5
RPMI-8226 = tested on: RPMI-8226
HOP-92 = tested on: HOP-92
PC-3 = tested on: PC-3
NCI-H226 = tested on: NCI-H226
MDA-MB-231 = tested on: MDA-MB-231
MCF7 = tested on: MCF7
SR = tested on: SR
T47D = tested on: T47D
Hs-578T = tested on: Hs-578T
NCI/ADR-RES = tested on: NCI/ADR-RES
HCC 2998 = tested on: HCC 2998
DU-145 = tested on: DU-145
MDA-MB-435 = tested on: MDA-MB-435
BT-549 = tested on: BT-549
MDA-N = tested on: MDA-N
DMS-114 = tested on: DMS-114

Structure (SMILES): Cc1cc(C)nc(NS(=O)(=O)c2ccc(NC(=O)c3cccc4c(Nc5ccc(S(=O)(=O)Nc6nc(C)cc(C)n6)cc5)c5ccccc5nc34)cc2)n1
- GI50 (XF498): 33.6 µM (inactive)
- GI50 (ACHN): 23.4 µM (inactive)
- GI50 (OVCAR-4): 25.7 µM (inactive)
- GI50 (NCI-H460): 32 µM (inactive)
- GI50 (MOLT-4): 22.4 µM (inactive)
- GI50 (K562): 19.4 µM (inactive)
- GI50 (A498): 18.7 µM (inactive)
- GI50 (SF-539): 15.4 µM (inactive)
- GI50 (M14): 25.1 µM (inactive)
- GI50 (EKVX): 24.2 µM (inactive)
- GI50 (Malme-3M): 27.6 µM (inactive)
- GI50 (A549): 25.8 µM (inactive)
- GI50 (SK-MEL-2): 34 µM (inactive)
- GI50 (OVCAR-3): 19.9 µM (inactive)
- GI50 (HOP-18): 12.2 µM (inactive)
- GI50 (NCI-H23): 20.3 µM (inactive)
- GI50 (OVCAR-8): 24.7 µM (inactive)
- GI50 (SNB-19): 10.2 µM (inactive)
- GI50 (SN12C): 14.3 µM (inactive)
- GI50 (TK-10): 27.2 µM (inactive)
- GI50 (UACC-62): 19.1 µM (inactive)
- GI50 (M19-MEL): 29.5 µM (inactive)
- GI50 (NCI-H522): 13.2 µM (inactive)
- GI50 (COLO 205): 22.9 µM (inactive)
- GI50 (IGROV-1): 32.8 µM (inactive)
- GI50 (RXF 393): 14.7 µM (inactive)
- GI50 (DLD-1): 19 µM (inactive)
- GI50 (HL-60): 18.1 µM (inactive)
- GI50 (RXF 631): 18.1 µM (inactive)
- GI50 (HCT-15): 21.6 µM
- GI50 (LOX IMVI): 17.6 µM (inactive)
- GI50 (KM12): 18.5 µM (inactive)
- GI50 (DMS-273): 17.9 µM (inactive)
- GI50 (CCRF-CEM): 22.2 µM (inactive)
- GI50 (SF-268): 12.9 µM (inactive)
- GI50 (SW-620): 28.1 µM (inactive)
- GI50 (SNB-78): 39.6 µM (inactive)
- GI50 (SF-295): 21.4 µM (inactive)
- GI50 (HOP-62): 21 µM (inactive)
- GI50 (SK-OV-3): 26 µM (inactive)
- GI50 (HCT-116): 11.7 µM (inactive)
- GI50 (UO-31): 17.7 µM (inactive)
- GI50 (LXFL 529): 21.3 µM (inactive)
- GI50 (UACC-257): 23 µM (inactive)
- GI50 (SK-MEL-28): 14.6 µM (inactive)
- GI50 (OVCAR-5): > 10 µM (inactive)
- GI50 (HT-29): 20 µM (inactive)
- GI50 (KM-20L2): 20.1 µM (inactive)
- GI50 (SNB-75): 3.44 µM (inactive)
- GI50 (U-251): 16.4 µM (inactive)
- GI50 (786-0): 19.6 µM (inactive)
- GI50 (CAKI-1): 22.8 µM (inactive)
- GI50 (SK-MEL-5): 16.6 µM (inactive)
- GI50 (RPMI-8226): 20.2 µM (inactive)
- GI50 (HOP-92): 18.9 µM (inactive)

Structure (SMILES): CCOC(=O)/C(=C\c1ccccc1)C(=O)CCN1CCOCC1
- GI50 (ACHN): 5.38 µM (inactive)
- GI50 (OVCAR-4): 12.4 µM (inactive)
- GI50 (NCI-H460): 14.4 µM (inactive)
- GI50 (MOLT-4): 1.99 µM (inactive)
- GI50 (K562): 1.57 µM (inactive)
- GI50 (A498): 16.7 µM (inactive)
- GI50 (PC-3): 12.2 µM (inactive)
- GI50 (SF-539): 7.26 µM (inactive)
- GI50 (M14): 6.67 µM (inactive)
- GI50 (EKVX): 15.6 µM (inactive)
- GI50 (Malme-3M): 2.7 µM (inactive)
- GI50 (NCI-H226): 20.7 µM (inactive)
- GI50 (A549): 22.4 µM (inactive)
- GI50 (MDA-MB-231): 13.5 µM (inactive)
- GI50 (SK-MEL-2): 17.8 µM (inactive)
- GI50 (OVCAR-3): 7.41 µM (inactive)
- GI50 (MCF7): 5.2 µM (inactive)
- GI50 (HOP-18): 13.9 µM (inactive)
- GI50 (SR): 2.1 µM (inactive)
- GI50 (NCI-H23): 8.85 µM (inactive)
- GI50 (OVCAR-8): 4.06 µM (inactive)
- GI50 (SNB-19): 16.2 µM (inactive)
- GI50 (SN12C): 8.65 µM (inactive)
- GI50 (TK-10): 6.5 µM (inactive)
- GI50 (UACC-62): 4.24 µM (inactive)
- GI50 (M19-MEL): 3.62 µM (inactive)
- GI50 (NCI-H522): 1.67 µM (inactive)
- GI50 (COLO 205): 3.66 µM (inactive)
- GI50 (IGROV-1): 15.2 µM (inactive)
- GI50 (RXF 393): 2.86 µM (inactive)
- GI50 (DLD-1): 2.43 µM (inactive)
- GI50 (T47D): 16.3 µM (inactive)
- GI50 (HL-60): 1.4 µM (inactive)
- GI50 (Hs-578T): 47.1 µM (inactive)
- GI50 (NCI/ADR-RES): 3.06 µM (inactive)
- GI50 (RXF 631): 11.3 µM (inactive)
- GI50 (HCT-15): 3.2 µM
- GI50 (LOX IMVI): 2.8 µM (inactive)
- GI50 (KM12): 7.94 µM (inactive)
- GI50 (DMS-273): 10.4 µM (inactive)
- GI50 (HCC 2998): 17.8 µM (inactive)
- GI50 (CCRF-CEM): 1.29 µM (inactive)
- GI50 (SF-268): 8.17 µM (inactive)
- GI50 (SW-620): 2.33 µM (inactive)
- GI50 (SNB-78): 11.6 µM (inactive)
- GI50 (SF-295): 19.2 µM (inactive)
- GI50 (HOP-62): 21 µM (inactive)
- GI50 (SK-OV-3): 23 µM (inactive)
- GI50 (HCT-116): 8.97 µM (inactive)
- GI50 (UO-31): 16.9 µM (inactive)
- GI50 (LXFL 529): 1.84 µM (inactive)
- GI50 (DU-145): 17.2 µM (inactive)
- GI50 (UACC-257): 4.58 µM (inactive)
- GI50 (SK-MEL-28): 3.54 µM (inactive)
- GI50 (OVCAR-5): 17.4 µM (inactive)
- GI50 (HT-29): 6.3 µM (inactive)
- GI50 (MDA-MB-435): 19 µM (inactive)
- GI50 (KM-20L2): 9.89 µM (inactive)
- GI50 (SNB-75): 16.4 µM (inactive)
- GI50 (U-251): 8.55 µM (inactive)
- GI50 (786-0): 7.78 µM (inactive)
- GI50 (CAKI-1): 4.49 µM (inactive)
- GI50 (BT-549): 16.7 µM (inactive)
- GI50 (SK-MEL-5): 12.6 µM (inactive)
- GI50 (MDA-N): 6.03 µM (inactive)
- GI50 (RPMI-8226): 2.07 µM (inactive)
- GI50 (DMS-114): 4.92 µM (inactive)
- GI50 (HOP-92): 5.86 µM (inactive)
